From PubChem BioAssay (NCI)
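In this assay, cells in 96-well plates receive the compound at five concentrations for 48 hours. Endpoints are linearly interpolated between the surrounding concentrations. The concentration for 50% growth inhibition is given as GI50. TGI marks complete inhibition of growth.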

Columns and labels:
Test in all cases: NCI tumour cell line growth inhibition, 48 h
786-0 renal = tested on: 786-0 renal
A498 renal = tested on: A498 renal
A549 NSCLC = tested on: A549 NSCLC
ACHN renal = tested on: ACHN renal
BT-549 breast = tested on: BT-549 breast
CAKI-1 renal = tested on: CAKI-1 renal
CCRF-CEM leukemia = tested on: CCRF-CEM leukemia
COLO 205 colon = tested on: COLO 205 colon
DU-145 prostate = tested on: DU-145 prostate
EKVX NSCLC = tested on: EKVX NSCLC
HCC-2998 colon = tested on: HCC-2998 colon
HCT-116 colon = tested on: HCT-116 colon
HCT-15 colon = tested on: HCT-15 colon
HL-60(TB) leukemia = tested on: HL-60(TB) leukemia
HOP-62 NSCLC = tested on: HOP-62 NSCLC
HOP-92 NSCLC = tested on: HOP-92 NSCLC
HS 578T breast = tested on: HS 578T breast
HT29 colon = tested on: HT29 colon
IGROV1 ovarian = tested on: IGROV1 ovarian
K-562 leukemia = tested on: K-562 leukemia
KM12 colon = tested on: KM12 colon
LOX IMVI melanoma = tested on: LOX IMVI melanoma
M14 melanoma = tested on: M14 melanoma
MALME-3M melanoma = tested on: MALME-3M melanoma
MCF7 breast = tested on: MCF7 breast
MDA-MB-231 breast = tested on: MDA-MB-231 breast
MDA-MB-435 = tested on: MDA-MB-435
MDA-MB-468 breast = tested on: MDA-MB-468 breast
MOLT-4 leukemia = tested on: MOLT-4 leukemia
NCI-H226 lung = tested on: NCI-H226 lung
NCI-H23 lung = tested on: NCI-H23 lung
NCI-H460 lung = tested on: NCI-H460 lung
NCI-H522 lung = tested on: NCI-H522 lung
NCI/ADR-RES ovarian = tested on: NCI/ADR-RES ovarian
OVCAR-3 ovarian = tested on: OVCAR-3 ovarian
OVCAR-4 ovarian = tested on: OVCAR-4 ovarian
OVCAR-5 ovarian = tested on: OVCAR-5 ovarian
OVCAR-8 ovarian = tested on: OVCAR-8 ovarian
PC-3 prostate = tested on: PC-3 prostate
RPMI-8226 leukemia = tested on: RPMI-8226 leukemia
RXF 393 renal = tested on: RXF 393 renal
SF-268 CNS = tested on: SF-268 CNS
SF-295 CNS = tested on: SF-295 CNS
SF-539 CNS = tested on: SF-539 CNS
SK-MEL-2 melanoma = tested on: SK-MEL-2 melanoma
SK-MEL-28 melanoma = tested on: SK-MEL-28 melanoma
SK-MEL-5 melanoma = tested on: SK-MEL-5 melanoma
SK-OV-3 ovarian = tested on: SK-OV-3 ovarian
SN12C renal = tested on: SN12C renal
SNB-19 CNS = tested on: SNB-19 CNS
SNB-75 CNS = tested on: SNB-75 CNS
SR leukemia = tested on: SR leukemia
SW-620 colon = tested on: SW-620 colon
T-47D breast = tested on: T-47D breast
TK-10 renal = tested on: TK-10 renal
U251 CNS = tested on: U251 CNS
UACC-257 melanoma = tested on: UACC-257 melanoma
UACC-62 melanoma = tested on: UACC-62 melanoma
UO-31 renal = tested on: UO-31 renal

Compound: CC/C(=C(\c1ccc(O)cc1)c1ccc(OCCN(C)C(=O)COCCNC(=O)Cc2ccc3c(c2)CN([C@@H]2CCC(=O)NC2=O)C3=O)cc1)c1ccccc1
- GI50 (786-0 renal): 51.7 µM
- TGI (786-0 renal): > 100 µM
- GI50 (A498 renal): 38.6 µM
- TGI (A498 renal): > 100 µM
- GI50 (A549 NSCLC): 46.2 µM
- TGI (A549 NSCLC): > 100 µM
- GI50 (ACHN renal): > 100 µM
- TGI (ACHN renal): > 100 µM
- GI50 (BT-549 breast): 0.15 µM
- TGI (BT-549 breast): 0.743 µM
- GI50 (CAKI-1 renal): 55.1 µM
- TGI (CAKI-1 renal): > 100 µM
- GI50 (CCRF-CEM leukemia): 0.995 µM
- GI50 (COLO 205 colon): 2.11 µM
- TGI (COLO 205 colon): 33.3 µM
- GI50 (DU-145 prostate): > 100 µM
- TGI (DU-145 prostate): > 100 µM
- GI50 (EKVX NSCLC): > 47 µM
- TGI (EKVX NSCLC): > 100 µM
- GI50 (HCC-2998 colon): 1.7 µM
- TGI (HCC-2998 colon): > 82.3 µM
- GI50 (HCT-116 colon): > 85.7 µM
- TGI (HCT-116 colon): > 100 µM
- GI50 (HCT-15 colon): > 88.1 µM
- TGI (HCT-15 colon): > 100 µM
- GI50 (HL-60(TB) leukemia): 0.0309 µM
- TGI (HL-60(TB) leukemia): 0.659 µM
- GI50 (HOP-62 NSCLC): 2.28 µM
- TGI (HOP-62 NSCLC): 19.1 µM
- GI50 (HOP-92 NSCLC): 0.177 µM
- TGI (HOP-92 NSCLC): 3.05 µM
- GI50 (HS 578T breast): 0.672 µM
- TGI (HS 578T breast): 11.8 µM
- GI50 (HT29 colon): > 57.6 µM
- TGI (HT29 colon): > 100 µM
- GI50 (IGROV1 ovarian): 0.433 µM
- TGI (IGROV1 ovarian): > 100 µM
- GI50 (K-562 leukemia): 16 µM
- TGI (K-562 leukemia): > 100 µM
- GI50 (KM12 colon): 8.5 µM
- TGI (KM12 colon): > 100 µM
- GI50 (LOX IMVI melanoma): > 84.5 µM
- TGI (LOX IMVI melanoma): > 100 µM
- GI50 (M14 melanoma): 30.8 µM
- TGI (M14 melanoma): > 100 µM
- GI50 (MALME-3M melanoma): 0.306 µM
- TGI (MALME-3M melanoma): 2.49 µM
- GI50 (MCF7 breast): 0.104 µM
- TGI (MCF7 breast): > 100 µM
- GI50 (MDA-MB-231 breast): 0.142 µM
- TGI (MDA-MB-231 breast): 0.801 µM
- GI50 (MDA-MB-435): 17.8 µM
- TGI (MDA-MB-435): > 100 µM
- GI50 (MDA-MB-468 breast): 0.0374 µM
- TGI (MDA-MB-468 breast): 0.266 µM
- GI50 (MOLT-4 leukemia): 0.0517 µM
- TGI (MOLT-4 leukemia): 1.1 µM
- GI50 (NCI-H226 lung): 2.35 µM
- TGI (NCI-H226 lung): > 26.7 µM
- GI50 (NCI-H23 lung): > 93.6 µM
- TGI (NCI-H23 lung): > 100 µM
- GI50 (NCI-H460 lung): > 100 µM
- TGI (NCI-H460 lung): > 100 µM
- GI50 (NCI-H522 lung): > 21.6 µM
- TGI (NCI-H522 lung): > 100 µM
- GI50 (NCI/ADR-RES ovarian): > 100 µM
- TGI (NCI/ADR-RES ovarian): > 100 µM
- GI50 (OVCAR-3 ovarian): 15.2 µM
- TGI (OVCAR-3 ovarian): > 100 µM
- GI50 (OVCAR-4 ovarian): 11.2 µM
- TGI (OVCAR-4 ovarian): > 100 µM
- GI50 (OVCAR-5 ovarian): > 57.6 µM
- TGI (OVCAR-5 ovarian): > 100 µM
- GI50 (OVCAR-8 ovarian): 1.56 µM
- TGI (OVCAR-8 ovarian): 33.4 µM
- GI50 (PC-3 prostate): 0.703 µM
- TGI (PC-3 prostate): > 100 µM
- GI50 (RPMI-8226 leukemia): 5.07 µM
- TGI (RPMI-8226 leukemia): > 100 µM
- GI50 (RXF 393 renal): 4.19 µM
- TGI (RXF 393 renal): 72.8 µM
- GI50 (SF-268 CNS): 5.38 µM
- TGI (SF-268 CNS): > 100 µM
- GI50 (SF-295 CNS): > 100 µM
- TGI (SF-295 CNS): > 100 µM
- GI50 (SF-539 CNS): > 62.6 µM
- TGI (SF-539 CNS): > 100 µM
- GI50 (SK-MEL-2 melanoma): 6.14 µM
- TGI (SK-MEL-2 melanoma): > 91.8 µM
- GI50 (SK-MEL-28 melanoma): 21.6 µM
- TGI (SK-MEL-28 melanoma): > 100 µM
- GI50 (SK-MEL-5 melanoma): 6.78 µM
- TGI (SK-MEL-5 melanoma): 73.9 µM
- GI50 (SK-OV-3 ovarian): 10.7 µM
- TGI (SK-OV-3 ovarian): > 100 µM
- GI50 (SN12C renal): 2.27 µM
- TGI (SN12C renal): > 93 µM
- GI50 (SNB-19 CNS): 1.83 µM
- TGI (SNB-19 CNS): > 100 µM
- GI50 (SNB-75 CNS): 0.316 µM
- TGI (SNB-75 CNS): > 94.8 µM
- GI50 (SR leukemia): 13.5 µM
- TGI (SR leukemia): > 74 µM
- GI50 (SW-620 colon): 1.9 µM
- TGI (SW-620 colon): > 100 µM
- GI50 (T-47D breast): 0.0259 µM
- TGI (T-47D breast): 4.61 µM
- GI50 (TK-10 renal): > 100 µM
- TGI (TK-10 renal): > 100 µM
- GI50 (U251 CNS): > 74.9 µM
- TGI (U251 CNS): > 100 µM
- GI50 (UACC-257 melanoma): > 100 µM
- TGI (UACC-257 melanoma): > 100 µM
- GI50 (UACC-62 melanoma): 54.2 µM
- TGI (UACC-62 melanoma): > 100 µM
- GI50 (UO-31 renal): > 100 µM
- TGI (UO-31 renal): > 100 µM
